Converted amounts (≈) assume the structure as drawn. Read-outs that look alike come from different tables or passages of the source.
What was measured:
anti-CPPU mAb = experiment: optimized indirect competitive ELISA (icELISA) with anti-CPPU monoclonal antibody; format: binding, mouse; conditions: for Cross-Reactivity: CR (%) = IC50 CPPU/IC50 structural analogue × 100
Procedure: (§1) The icELISA protocol was performed as described previously. Briefly, 100 µL/well of coating antigen (1 µg/mL in CBS) was added to 96-well microtiter plates and stored at 37 °C overnight. The plate was rinsed twice with washing buffer and blocked by PBST containing 5% skimmed milk powder (120 µL/well) for 3 h at 37 °C. Then, the plate was rinsed twice and dried at 37 °C for 60 min. CPPU standard in PBS (50 µL) and the antibodies diluted in PBS (50 µL) were added and incubated at 37 °C for 40 min. After rinsing five times, the goat anti-mouse IgG-HRP was added (100 µL/well), followed by incubation for 30 min at 37 °C. After rinsing five times, the TMB solution (100 µL/well) was added and incubated for another 10 min at 37 °C. Stopping reagent (50 µL/well) was injected into each well to stop the chromogenic reaction, and the absorbance at 450 nm was measured using a microplate reader.
Many reports have shown that the immunoassay is an equilibrium binding reaction, and the experimental parameters used can affect the performance of the ELISA [28, 31, 32, 33]. In order to improve sensitivity of the established icELISA, the assay was optimized on concentrations of coating antigen and antibody, working buffer, and IgG-HRP dilution multiple. A standard curve for CPPU was obtained under optimal conditions by four-parameter sigmoidal fitting with Origin 9.0 software (OriginLab Corporation, Northampton, MA, USA). The IC10, IC20, IC50, and IC80 values correspond to the CPPU concentration levels that inhibit 10%, 20%, 50%, and 80% of the binding between mAb and the coating antigen, respectively. The IC10 value represents the LOD of the assay. The concentration levels from IC20 to IC80 are the linear range of the assay.
To evaluate the specificity of the mAb against CPPU, CR values with six structural analogs were chosen for evaluation. The CR values were calculated using Equation (1):CR (%) = IC50 CPPU/IC50 structural analogue × 100(1)

[1] = system: mice antisera against CPPU; experiment: icELISA characterization of mice antisera: inhibition by CPPU; format: binding, mouse; conditions: 1 μg/mL of competitor
Procedure: At the first immunization, each eight-week-old Balb/c female mouse was injected subcutaneously with 200 µL of an emulsion containing an equal volume of immunogen (1.0 mg/mL) and Freund’s complete adjuvant. In the subsequent booster immunizations, Freund’s incomplete adjuvant was substituted for Freund’s complete adjuvant and was injected at two-week intervals. After the third booster injection, the antisera were collected 7 days after each injection and checked by icELISA.
as §1

antisera to CPPU = system: antisera to CPPU; design: method as in PMID 18989973, PMID 20681638, PMID 22526663; conditions: high-affinity antisera, Abad-Fuentes group; cited from earlier work
[2] = system: monoclonal antibody (mAb); design: method as in doi:10.14088/j.cnki.issn0439-8114.2016.21.037; conditions: immunogen CPPU-H1-BSA, coating antigen CPPU-H2-OVA; cited from earlier work
[3] = system: rabbit polyclonal antibody; design: method as in earlier work; conditions: rabbit polyclonal antibody icELISA; cited from earlier work
monoclonal antibody = system: monoclonal antibody; design: method as in PMID 22526663; conditions: previous mAb-based ELISA for CPPU; cited from earlier work
[4] = optimum conditions: coating antigen 250 ng/mL, antibody 1:8000 dilution, PBS, IgG-HRP 1:5000

Structure (SMILES)	Cross-Reactivity (anti-CPPU mAb) [%]	IC50 (anti-CPPU mAb; [4]) [µg/mL]	other results
O=C(O)c1nc(Cl)ccc1Cl [3,6-Dichloropicolinic]	0.63	0.1662	–
O=C(Nc1ccccc1)Nc1ccnc(Cl)c1 [CPPU, Forchlorfenuron]	100	0.00104	IC50 (anti-CPPU mAb; IC50 1.04 ng/mL given in nM, read-out: IC50): 4.2 nM; limit of detection (LOD, IC10) (anti-CPPU mAb; optimum conditions, IC10 value represents the LOD): 0.00016 µg/mL; Inhibition of CPPU ([1]; immunogen CPPU-COOH-BSA, coating antigen CPPU-COOH-OVA): 58.4%; Inhibition of CPPU ([1]; immunogen CPPU-COOH-KLH, coating antigen CPPU-COOH-BSA): 55.6%; Inhibition of CPPU ([1]; immunogen CPPU-COOH-KLH, coating antigen CPPU-COOH-OVA): 55.9%; Inhibition of CPPU ([1]; immunogen CPPU-COOH-THY, coating antigen CPPU-COOH-BSA): 83.3%; Inhibition of CPPU ([1]; immunogen CPPU-COOH-THY, coating antigen CPPU-COOH-OVA): 82.9%; IC50 (antisera to CPPU): < 1 nM; IC50 [2]: 0.00389 µg/mL (≈ 0.0157 µM); IC50 [3]: 0.048 µg/mL (≈ 0.194 µM); LOD [3]: 1 ng/mL
Cc1ccc(NC(=O)N(C)C)cc1Cl [Chlortoluron]	1.62	0.06434	–
CN(C)C(=O)Nc1ccc(Cl)c(Cl)c1 [Diuron]	0.13	0.82379	–
CON(C)C(=O)Nc1ccc(Cl)c(Cl)c1 [Linuron]	0.46	0.22643	–
Nc1c(Cl)c(Cl)nc(C(=O)O)c1Cl [Picloram]	0.23	0.45072	–
O=C(Nc1ccccc1)Nc1cnns1 [Thidiazuron (TDZ), Thidiazuron]	5.36	0.01942	Cross-Reactivity (anti-CPPU mAb; listed as TDZ): less than 6%; cross-reactivity (CR) (monoclonal antibody): 71%
